Test results taken from US7153858B2, “Arylpiperazinyl compounds” (Epix Delaware, Inc., priority 2003, dated 2006).
Like-named read-outs stand apart in the source and are kept apart here.

Columns and labels:
Format in all cases: binding
[1] = target: T1, 5-HT1A (Homo sapiens, UniProt P08908); assay: 5-HT1A receptor affinity (Ki), Table 1
T1 sequence (P08908 1-422): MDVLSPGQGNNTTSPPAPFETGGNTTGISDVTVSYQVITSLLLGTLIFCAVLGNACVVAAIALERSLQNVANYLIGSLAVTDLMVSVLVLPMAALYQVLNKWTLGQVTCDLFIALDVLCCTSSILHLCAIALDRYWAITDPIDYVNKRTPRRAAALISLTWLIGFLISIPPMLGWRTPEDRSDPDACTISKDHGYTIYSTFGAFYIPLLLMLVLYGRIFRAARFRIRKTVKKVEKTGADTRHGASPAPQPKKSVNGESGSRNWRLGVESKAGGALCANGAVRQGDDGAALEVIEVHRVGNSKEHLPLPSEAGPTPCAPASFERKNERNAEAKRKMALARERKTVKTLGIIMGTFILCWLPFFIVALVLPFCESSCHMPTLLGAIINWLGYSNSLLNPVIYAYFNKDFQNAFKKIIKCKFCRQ

[2] = tested on: α2; assay: α2 cross-reactivity (% inhibition / Ki), Table 1
[3] = tested on: α1; assay: α1 cross-reactivity (% inhibition / Ki), Table 1

| Structure (SMILES) | Ki ([1]; 5-HT1A (Ki)) [nM] | α2 % inhibition [2] [%] | α1 % inhibition [3] [%] | Ki ([1]; read-out: 5-HT1A (Ki)) [nM] | Ki [2] [nM] |
| --- | --- | --- | --- | --- | --- |
| Cl.O=C(Nc1cccc(N2CCNCC2)c1)C1CC1 [Cyclopropanecarboxylic acid (3-piperazin-1-yl-phenyl)-amide HCl] | 4.6 | 14 | 0 | – | – |
| CN(C)c1cccc(N2CCN(CC3CCN(S(=O)(=O)c4ccc(F)cc4)CC3)CC2)c1 [(3-{4-[1-(4-Fluoro-benzenesulfonyl)-piperidin-4-ylmethyl]-piperazin-1-yl}-phenyl)-dimethyl-amine] | – | 0 | 74 | 507 | – |
| CN(C)c1cccc(N2CCN(CCCCNS(=O)(=O)CC3CCCCC3)CC2)c1 [C-Cyclohexyl-N-{4-[4-(3-dimethylamino-phenyl)-piperazin-1-yl]-butyl}-methanesulfonamide] | – | 25 | 85 | 110 | – |
| CC(=O)Nc1cccc(N2CCN(CCCCN(C)S(=O)(=O)CC3CCCCC3)CC2)c1 [N-(3-{4-[4-(Cyclohexylmethanesulfonyl-methyl-amino)-butyl]-piperazin-1-yl}-phenyl)-acetamide] | – | 47 | 37 | 1.3 | 616 |
| CC(=O)Nc1cccc(N2CCN(CC3CCN(S(=O)(=O)C(C)C)CC3)CC2)c1 [N-(3-{4-[1-(Propane-2-sulfonyl)-piperidin-4-ylmethyl]-piperazin-1-yl}-phenyl)-acetamide] | – | <10 | <10 | 112 | – |
| CC(=O)Nc1cccc(N2CCN(CCCCNS(=O)(=O)C3CCCCC3)CC2)c1 [N-{3-[4-(4-Cyclohexanesulfonylamino-butyl)-piperazin-1-yl]-phenyl}-acetamide] | – | 12 | <10 | 40 | – |
| CCS(=O)(=O)Nc1cccc(N2CCN(CCCCNS(=O)(=O)c3ccc(C)cc3)CC2)c1 [N-{4-[4-(3-Ethanesulfonylamino-phenyl)-piperazin-1-yl]-butyl}-4-methyl-benzenesulfonamide] | – | 14 | 47 | 141 | – |
| CC(=O)Nc1cccc(N2CCN(CCCCNS(=O)(=O)c3ccc(F)cc3)CC2)c1 [N-(3-{4-[4-(4-Fluoro-benzenesulfonylamino)-butyl]-piperazin-1-yl}-phenyl)-acetamide] | – | <10 | 39 | 18 | – |
| CC(=O)Nc1cccc(N2CCN(CC3CCN(S(=O)(=O)CC4CCCCC4)CC3)CC2)c1 [N-{3-[4-(1-Cyclohexylmethanesulfonyl-piperidin-4-ylmethyl)-piperazin-1-yl]-phenyl}-acetamide] | – | <10 | 13 | 10 | – |
| Cc1ccc(S(=O)(=O)NCCCCN2CCN(c3cccc(NC(=O)C4CC4)c3)CC2)cc1 [Cyclopropanecarboxylic acid (3-{4-[4-(toluene-4-sulfonylamino)-butyl]-piperazin-1-yl}-phenyl)-amide] | – | 15 | 40 | 21 | – |
| CC(=O)Nc1cccc(N2CCN(CC3CCN(S(=O)(=O)c4ccc(F)cc4)CC3)CC2)c1 [N-(3-{4-[1-(4-Fluoro-benzenesulfonyl)-piperidin-4-ylmethyl]-piperazin-1-yl}-phenyl)-acetamide] | – | <10 | 49 | 13 | – |
| Cc1ccc(S(=O)(=O)NCCCCN2CCN(c3ccccc3)CC2)cc1 [4-Methyl-N-[4-(4-phenyl-piperazin-1-yl)-butyl]-benzenesulfonamide] | – | 90 | 98 | 40 | – |
| Cc1ccc(S(=O)(=O)NCCCCN2CCN(c3cccc(NS(=O)(=O)C(C)C)c3)CC2)cc1 [4-Methyl-N-(4-{4-[3-(propane-2-sulfonylamino)-phenyl]-piperazin-1-yl}-butyl)-benzenesulfonamide] | – | <10 | 15 | 78 | – |
| O=S(=O)(c1ccc(F)cc1)N1CCC(CN2CCN(c3ccccn3)CC2)CC1 [1-[1-(4-Fluoro-benzenesulfonyl)-piperidin-4-ylmethyl]-4-pyridin-2-yl-piperazine] | – | 68 | 42 | 21 | – |
